{"source": "patent US5380646A", "about": "“Thrombus detection using radiolabelled disintegrins” (Temple University of the Commonwealth System of Higher …, priority 1992, dated 1995)", "key": {"pulmonary emboli [1]": {"test_system": "pulmonary emboli", "details": "literature, in words; cited from earlier work"}, "thrombi": {"test_system": "thrombi", "details": "literature, in words; cited from earlier work"}, "pulmonary emboli [2]": {"test_system": "pulmonary emboli", "assay": "Comparison of short Arg-Gly-Asp peptides to disintegrins in dog, pulmonary emboli (Example 7)", "type": "in vivo", "details": "PE; 4 hrs", "experimental": "In this example of thrombi and emboli in a dog, the radioactivity target:background ratios were determined qualitatively by imaging and quantitatively by tissue sampling. Higher ratios are due to the increased target specificity of the radiolabel carrier. Significant measurements presented in this study are the relative ratio of counts from the target tissue (thrombus and pulmonary emboli) to background entities (muscle, vessels blood etc.). […] Thrombus uptake data, such as the percent injected radiolabel dose per gram of thrombus (% id/g thrombus), thrombus-to-blood (=100×% id/g thrombus.div.%id/g blood) and thrombus-to-muscle ratios (=100×%id/g thrombus.div.%id/g muscle) were calculated from the tissue sample count data discussed below.\nTo create a model of pulmonary embolus, an incision was made in the corresponding location on the left leg of the dog. […] The catheter and guide wire were withdrawn. The incision was closed with 2-0 silk.\nTwenty-four hours after placement of the coils, anesthesia was induced as before. The urinary bladder was catheterized to collect urine. A large field of view gamma camera (General Electric, Milwaukee, Wis.) was positioned over the dog for an anterior view of the chest. The camera was fitted with a low-energy all-purpose collimator and was set to acquire the 159 keV photopeak of ^123 I with a 20% window. A Macintosh IIx computer was interfaced to the camera using a NucLear Mac A/D board and software (Scientific Imaging, Denver, Colo.). […] The ^125 -fibrinogen served as a control, since it has been studied previously in this dog model.\n[…] A blood sample was drawn and 0.3 cc was transferred into each of two pre-weighed tubes. The animal was euthanized with intracardiac injection of KCl saturated solution. The vein segment containing the thrombus was carefully removed and dissected to separate the thrombus, coil, Dacron fibers and vessel wall. Each of these samples was placed on tared paper and weighed (wet weight). Similar size samples of control vessel (femoral vein from the control side) and skeletal muscle (from the thigh) were also collected and weighed. The \"abnormal vessel\" was the sample of vein from which the thrombus was dissected. The \"control vessel\" was the identical control vessel from the opposite leg. The control vessel Was not injured and therefore should not have significant uptake of radiotracer. Each sample was then placed in a counting tube and counted along with a saved aliquot of the injected dose as a standard, in a well counter. After counting, samples were held for decay of ^123 I and recounted in a lower energy window to collect the counts from ^125 I.\nThe imaging ability of the small peptides was compared to that of the ^123 I-labelled disintegrins in the Example 6 dog model. […]"}, "femoral clot": {"test_system": "femoral clot", "assay": "Comparison of short Arg-Gly-Asp peptides to disintegrins in dog, femoral clot (Example 7)", "type": "in vivo", "details": "T:B at least 4:1 in extremities, 9:1 in chest", "quoted_text": "In this example of thrombi and emboli in a dog, the radioactivity target:background ratios were determined qualitatively by imaging and quantitatively by tissue sampling. […] Significant measurements presented in this study are the relative ratio of counts from the target tissue (thrombus and pulmonary emboli) to background entities (muscle, vessels blood etc.). […] Thrombus uptake data, such as the percent injected radiolabel dose per gram of thrombus (% id/g thrombus), thrombus-to-blood (=100×% id/g thrombus.div.%id/g blood) and thrombus-to-muscle ratios (=100×%id/g thrombus.div.%id/g muscle) were calculated from the tissue sample count data discussed below.\nA female mongrel dog weighing 40 lbs was fasted overnight. The dog was sedated with an intramuscular injection of a mixture of ketamine hydrochloride and acepromazine maleate. General anesthesia was induced with intravenous pentobarbital (20 mg/kg). After shaving and washing the dog's skin, a 3-cm incision was made in the right groin area. Using blunt dissection, a segment of the femoral vein was located and freed from surrounding tissue for a length of 1 inch. […]\nAt 2 hours and 45 min. post injection, deep anesthesia was induced by intravenous administration of 30 mg/kg pentobarbital. […] Each sample was then placed in a counting tube and counted along with a saved aliquot of the injected dose as a standard, in a well counter. […]"}}, "note": "Ends that are not written are not given here.", "data": [{"substance": "Fibronectin", "values": [{"measurement": "ability to image pulmonary emboli", "setting": "pulmonary emboli [1]", "value": "not been useful for imaging pulmonary emboli"}]}, {"substance": "urokinase", "values": [{"measurement": "ability to image or detect thrombi", "setting": "thrombi", "value": "only with marginal success"}]}, {"substance": "^123 I-eristostatin: eristostatin, disintegrin from Eristocophis macmahoni, radioiodinated with ^123 I (QEEPCATGPCCRRCKFKRAGKVCRVARGDWNDDYCTGKSCDCPRNPWN; cysteine pairing not given here; also: radioiodinated with 123I, place not given here)", "values": [{"measurement": "AV:CV abnormal (injured) vessel:control vessel label ratio", "setting": "pulmonary emboli [2]", "value": 1.2}, {"measurement": "Percent Injected Dose Per Gram of Thrombus", "setting": "pulmonary emboli [2]", "value": 0.1205, "unit": "% id/g"}, {"measurement": "T:B thrombus:blood ratio", "setting": "pulmonary emboli [2]", "value": 8.6}, {"measurement": "T:M thrombus:muscle ratio", "setting": "pulmonary emboli [2]", "value": 40.6}, {"measurement": "target:background ratios versus medically acceptable range for imaging", "setting": "femoral clot", "value": "medically significant background ratios for imaging of thrombi"}]}, {"substance": "streptokinase", "values": [{"measurement": "ability to image or detect thrombi", "setting": "thrombi", "value": "only with marginal success"}]}, {"substance": "Heparin [reference compound]", "values": [{"measurement": "ability to image or detect thrombi", "setting": "thrombi", "value": "not been found successful as an agent for imaging thrombi"}]}]}
